Experimental findings from publication PMC4577731, “Discovery, synthesis and biochemical profiling of purine-2,6-dione derivatives as inhibitors of the human poly(A)-selective ribonuclease Caf1” (Bioorganic & Medicinal Chemistry Letters, 2015) are described below.

The structures appear in SMILES notation. Where two headings read alike, the source gives them in different places.

The IC50 is the midpoint of a concentration-inhibition curve.

For one assay, the target named is T1, PARN (Homo sapiens, UniProt O95453).
T1 sequence (O95453 1-639): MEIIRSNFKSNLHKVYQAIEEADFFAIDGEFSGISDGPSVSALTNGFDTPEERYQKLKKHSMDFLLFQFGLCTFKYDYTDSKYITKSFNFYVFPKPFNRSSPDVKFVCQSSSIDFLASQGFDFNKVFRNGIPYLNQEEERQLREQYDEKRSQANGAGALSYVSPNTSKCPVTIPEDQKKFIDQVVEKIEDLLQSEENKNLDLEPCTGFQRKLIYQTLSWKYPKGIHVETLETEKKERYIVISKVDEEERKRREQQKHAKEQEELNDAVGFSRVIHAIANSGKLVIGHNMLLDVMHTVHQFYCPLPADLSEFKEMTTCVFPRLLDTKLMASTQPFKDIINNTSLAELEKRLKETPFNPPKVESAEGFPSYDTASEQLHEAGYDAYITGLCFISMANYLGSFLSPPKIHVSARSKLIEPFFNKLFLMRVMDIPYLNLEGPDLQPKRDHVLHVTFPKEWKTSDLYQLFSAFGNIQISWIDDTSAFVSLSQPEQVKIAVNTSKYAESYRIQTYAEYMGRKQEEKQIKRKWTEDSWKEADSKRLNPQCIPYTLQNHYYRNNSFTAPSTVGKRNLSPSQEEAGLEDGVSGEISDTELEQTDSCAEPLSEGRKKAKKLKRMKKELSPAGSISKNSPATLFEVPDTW
As to the kind of experiment: Fluorescence-based biochemical assay of PARN ribonuclease activity. The following applies: for IC50: fluorescence-based biochemical assay, ± standard error of the mean (n = 3); for inhibition of PARN ribonuclease activity (in words): Fig. 3, compounds used at 10 μM (5h–k). Here is the method: The selectivity of the compounds was determined by comparing their activities against Caf1 and two related deadenylase enzymes: the PARN ribonuclease, which has a conserved nuclease domain similar to that of Caf1, and Ccr4, whose biological function is related to Caf1, but which contains a dissimilar EEP-type nuclease domain.[22]
Error bars represent the standard deviation.

Another assay has as its target Caf1 (Homo sapiens, UniProt Q9UIV1). As to the kind of experiment: Fluorescence-based biochemical assay of Caf1 ribonuclease activity.
The mark [1] stands for this setting: read-out: IC50 (Caf1), fluorescence-based biochemical assay, ± standard error of the mean (n = 3).

Chain of Caf1 (Q9UIV1 whole entry): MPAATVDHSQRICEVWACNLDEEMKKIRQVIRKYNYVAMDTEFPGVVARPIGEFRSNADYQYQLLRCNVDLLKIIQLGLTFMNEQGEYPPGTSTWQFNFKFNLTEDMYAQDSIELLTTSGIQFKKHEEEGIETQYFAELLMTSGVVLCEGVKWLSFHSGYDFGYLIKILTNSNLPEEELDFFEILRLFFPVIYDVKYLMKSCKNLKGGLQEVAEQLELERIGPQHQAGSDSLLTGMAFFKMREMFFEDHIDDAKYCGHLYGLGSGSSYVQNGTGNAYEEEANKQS
Description for Caf1: Following LC–MS and solubility analysis, five compounds were evaluated for their ability to inhibit Caf1 activity using a fluorescence-based biochemical assay (Fig. 1B).[22]
Reactions contained no enzyme (control), complete reactions (enzyme) or complete reactions in the presence of the indicated compound. […] Error bars represent the standard deviation.

`O=c1[nH]c2ncn(Cc3ccccc3)c2c(=O)n1O` [Compound 5a]: the concentration for half-maximal inhibition (IC50) against PARN is 84.1 ± 6.7 µM; against Caf1, 22.8 ± 0.1 µM; at Caf1 (setting [1]) it was 10.4 ± 0.4 µM. With `O=c1[nH]c2ncn(Cc3ccccn3)c2c(=O)n1O` [Compound 5c], the IC50 against PARN was 119 ± 25 µM; on Caf1 (setting [1]), 10.6 ± 2.7 µM. The matching figures for `O=c1[nH]c2ncn(Cc3cccnc3)c2c(=O)n1O` [Compound 5d]: 125 ± 32 µM and 6.6 ± 0.7 µM. Take `O=c1[nH]c2ncn(Cc3ccncc3)c2c(=O)n1O` [Compound 5e]: half-maximal inhibition at PARN (IC50) required 245 ± 20 µM. For `O=c1[nH]c2ncn(CCCc3ccccc3)c2c(=O)n1O` [Compound 5f], the IC50 at Caf1 (setting [1]) turned out to be 13.3 ± 2.3 µM. The same measure, in the same setting: next, `CCCCOCCCn1cnc2[nH]c(=O)n(O)c(=O)c21` [Compound 5g]: 20.6 ± 5.8 µM. For `O=c1[nH]c2ncn(CCc3cccs3)c2c(=O)n1O` [Compound 5h], the “inhibition of PARN ribonuclease activity (in words)” value (“inhibition” for short) against PARN is on record as “also inhibited the related deadenylase PARN”. For the same compound, the 50% inhibitory concentration (IC50) on Caf1 (setting [1]) was determined as 3.6 ± 1.1 µM. Take `O=c1[nH]c2ncn(CCc3ccccc3)c2c(=O)n1O` [Compound 5j]: on PARN, the “inhibition” value is “also inhibited the related deadenylase PARN”. As to `O=c1[nH]c2ncn(CCc3ccccn3)c2c(=O)n1O` [Compound 5k], the “inhibition” value at PARN is recorded as “also inhibited the related deadenylase PARN”. Further, the IC50 at Caf1 (setting [1]) came to 4 ± 1.1 µM. Regarding `Cn1c(=O)n(O)c(=O)c2c1ncn2CCc1ccccc1` [Compound 8a], on Caf1 (setting [1]), the IC50 is 9.3 ± 1.7 µM.

Regarding `O=c1c2c(ncn2CCc2ccccc2)n(Cc2ccccc2)c(=O)n1O` [Compound 8i], on Caf1 (setting [1]), the IC50 was 14.5 ± 0.9 µM.

As for `CN(C)CCCn1c(=O)n(O)c(=O)c2c1ncn2CCc1ccccc1` [Compound 8j], the “activity versus PARN (in words)” value on PARN (Table 2, Fig. 3, 3 μM) is on record as “displayed reduced activity versus PARN”. Moreover, the IC50 worked out at 23.9 ± 3.7 µM against PARN and 0.59 ± 0.11 µM on Caf1 (setting [1]). The “increased activity against Caf1 compared to compound 5a” value on Caf1 was over 10 fold. In addition, on Caf1 (compared with the inhibitors of ref 22), the “potency against Caf1 relative to all previously identified compounds” value is reported as over 20 fold. On to `O=c1c2c(ncn2CCc2ccccc2)n(CCN2CCOCC2)c(=O)n1O` [Compound 8k], for which the IC50 on Caf1 (setting [1]) is 8.7 ± 0.3 µM. On the same count and under the same terms, under `O=c1[nH]c2cnn(-c3ccccc3)c2c(=O)n1O` [NSC-104148] stands 38.6 ± 2.79 µM. Still for that read-out and setting: under `O=c1[nH]c2ncsc2c(=O)n1O` [NSC-116567] stands 28.7 ± 3.8 µM. Same read-out and setting: under `O=c1[nH]c2cccnc2c(=O)n1O` [NSC-193557] stands 525 ± 13.9 µM.
